The subject of experiment [1] is H3K27 methylation in G401 cell. Nature of the experiment: ELISA (H3K27 methylation) assay. The format is cell-based. To be noted: Homo sapiens, G-401; ELISA Qualified assay (H3K27 methylation); read-out: (c) IC50 (μM), ELISA Qualified. The source says:
ELISA (H3K27 Methylation) Assay

The test system of experiment [2] is B cell lymphoma cell KARPAS422. As to the kind of experiment: Analysis of cell proliferation. The format is cell-based. The settings on record: Homo sapiens, KARPAS-422, 336 h; B cell lymphoma cell KARPAS422 after 14 days of treatment; read-out: antiproliferative activities (IC50 values). As for the experimental part:
Analysis of Cell Proliferation
B cell lymphoma cell KARPAS422 was cultured using standard cell culture conditions in RPMI-1640 (Invitrogen, cat #11875) supplemented with 15% FBS (Invitrogen, cat #10099-141) in humidified incubator at 37° C., 5% CO2. To assess the effect of PRC2 inhibition on cell proliferation, exponentially growing cells were seeded at a density of 1×10^5 cells/mL in 12-well plate (Corning, cat #CLS3513). After cell seeding, a compound of the present disclosure was added to the cell media (in concentrations ranging from 0 to 100 μM, 3× dilution series). Viable cell numbers were determined every 3-4 days for up to 14 days using Vi-CELL (Beckman Coulter). On days of cell counting, fresh growth media and compound were replenished and cells split back to a density of 1×10^5 cells/mL. Total cell number is expressed as split-adjusted viable cells per mL. The dose response curves and IC50 values were generated using Prism.

The structures appear in SMILES notation.

With `Cc1ncc(-c2cnc(NCc3c(F)ccc4c3CCO4)n3cnnc23)c(C)n1` [Example 3, 8-(2,4-Dimethylpyrimidin-5-yl)-N-((5-fluoro-2,3-dihydrobenzofuran-4-yl)methyl)-[1,2,4]triazolo[4,3-c]pyrimidin-5-amine], the figures for the IC50 in experiment [1] and in experiment [2] were 0.0034 µM and 0.7 nM, respectively.

For `Cc1nn(C(C)C)cc1-c1cnc(NCc2c(F)ccc3c2CCO3)n2cnnc12` [Example 4, N-((5-Fluoro-2,3-dihydrobenzofuran-4-yl)methyl)-8-(1-isopropyl-3-methyl-1H-pyrazol-4-yl)-[1,2,4]triazolo[4,3-c]pyrimidin-5-amine], the values for the IC50 in experiment [1] and in experiment [2] were 0.0021 µM and 0.3 nM, respectively.

Regarding `COc1cc(C)c(-c2cnc(NCc3c(F)ccc4c3CCO4)n3cnnc23)cn1` [Example 5, N-((5-fluoro-2,3-dihydrobenzofuran-4-yl)methyl)-8-(6-methoxy-4-methylpyridin-3-yl)-[1,2,4]triazolo[4,3-c]pyrimidin-5-amine], the 50% inhibitory concentration (IC50) – broadly, the concentration that inhibits the measured activity by half – is 0.0029 µM in experiment [1] and 0.8 nM in experiment [2].

Turning to `Cc1nc(C2CC2)ccc1-c1cnc(NCc2c(F)ccc3c2CCO3)n2cnnc12` [Example 6, 8-(6-Cyclopropyl-2-methylpyridin-3-yl)-N-((5-fluoro-2,3-dihydrobenzofuran-4-yl)methyl)-[1,2,4]triazolo[4,3-c]pyrimidin-5-amine], the IC50 in experiment [1] was 0.0038 µM; in experiment [2], 0.2 nM.

In the case of `OCc1ncccc1-c1cnc(NCc2c(F)ccc3c2CCO3)n2cnnc12` [Example 7, (3-(5-(((5-fluoro-2,3-dihydrobenzofuran-4-yl)methyl)amino)-[1,2,4]triazolo[4,3-c]pyrimidin-8-yl)pyridin-2-yl)methanol], the values for the IC50 in experiment [1] and in experiment [2] were 0.0052 µM and 3 nM, respectively.

As for `Cc1nc(C2CC2)ncc1-c1cnc(NCc2c(F)ccc3c2CCO3)n2cnnc12` [Example 8, 8-(2-cyclopropyl-4-methylpyrimidin-5-yl)-N-((5-fluoro-2,3-dihydrobenzofuran-4-yl)methyl)-[1,2,4]triazolo[4,3-c]pyrimidin-5-amine], the values for the IC50 in experiment [1] and in experiment [2] were 0.0029 µM and 0.6 nM, respectively.

As for `Cc1nc(OC(C)C)ncc1-c1cnc(NCc2c(F)ccc3c2CCO3)n2cnnc12` [Example 9, N-((5-fluoro-2,3-dihydrobenzofuran-4-yl)methyl)-8-(2-isopropoxy-4-methylpyrimidin-5-yl)-[1,2,4]triazolo[4,3-c]pyrimidin-5-amine], the IC50 in experiment [1] was determined as 0.0035 µM; in experiment [2] it was 0.6 nM.

Turning to `[O-][n+]1cccc(-c2cnc(NCc3c(F)ccc4c3CCO4)n3cnnc23)c1` [Example 10, 3-(5-(((5-fluoro-2,3-dihydrobenzofuran-4-yl)methyl)amino)-[1,2,4]triazolo[4,3-c]pyrimidin-8-yl)pyridine 1-oxide], the 50% inhibitory concentration (IC50) in experiment [1] was determined as 0.001 µM; in experiment [2], 17.4 nM.

Turning to `Cc1ncccc1-c1cnc(NCc2c(F)ccc3occc23)n2cnnc12` [Example 207, N-((5-fluorobenzofuran-4-yl)methyl)-8-(2-methylpyridin-3-yl)-[1,2,4]triazolo[4,3-c]pyrimidin-5-amine], the figures for the IC50 in experiment [1] and in experiment [2] were 0.0036 µM and 1 nM, respectively.

For the origin of these results see patent US11207325B2, “Triazolopyrimidine compounds and uses thereof” (Novartis AG, priority 2014, dated 2021).
